The source of these data is publication PMC11378297, “Discovery and Profiling of New Multimodal Phenylglycinamide Derivatives as Potent Antiseizure and Antinociceptive Drug Candidates” (ACS Chemical Neuroscience, 2024).

In test [1] the test system is glutamate and GABA concentrations in brain. Description: glutamate and GABA concentrations in hippocampus and cortex of PTZ-kindled mice. Format: in vivo, mouse. The text has this: After behavioral tests (FST, PTZ-induced kindling), we determined the changes in glutamate and GABA concentrations in the hippocampus and cortex. Since exposure to the FST can evoke various neurochemical alterations, two additional groups were employed in this experiment, i.e., control nonkindled mice that were exposed to the FST and naïve mice. No marked differences in both glutamate and GABA concentrations in the hippocampus were observed (Figure 5A). […] We found a significant increase in glutamate concentration in the cortex of mice subjected to the FST (p < 0.05 vs naive mice). […] Given that seizures are typically accompanied by elevated extracellular glutamate levels (an excitatory neurotransmitter), a decreased glutamate concentration in the cortex of kindled animals may appear to be an unexpected outcome. It should be highlighted, however, that the concentrations of glutamate and GABA in tissue homogenates rather than dialysate were measured in brain samples acquired 24 h following the previous PTZ dose, which may have an impact on the outcomes. On the other hand, decreased glutamate levels could be caused by the up-regulation of glutamate transporters, as the expression of glutamate transporters can increase following seizures.[48] For example, an increased expression of hippocampal GLT-1 was observed 24 h after kainic acid-induced status epilepticus in mice and PTZ-induced kindling in rats.[49] Moreover, similar to our findings, Szyndler et al.([50]) found decreased glutamate concentrations, with no changes in GABA concentrations, in homogenates of the hippocampus, striatum, and prefrontal cortex of PTZ-kindled rats.
Figure 5 Changes in glutamate and GABA concentrations in the hippocampus (A) and cortex (B). Data are shown as means + SD (n = 9–14 animals). Statistical significance was evaluated by one-way ANOVA followed by Tukey’s post hoc test: *p < 0.05, **p < 0.01, ***p < 0.001 (GraphPad Prism 8.4.3).
GABA and glutamate concentrations were determined using liquid chromatography tandem mass spectrometry (LC-MS/MS) in the mouse prefrontal cortex and hippocampus. Toronto Research Chemicals Inc. was the source of the standards for both analytes (Toronto, ON, Canada). GABA and glutamate stock standard solutions were made in methanol and deionized water, respectively, and kept cold at 4 °C. The stock solutions were suitably diluted to create a range of solution combinations with the appropriate concentrations. Prior to analysis, a hand-held pestle and glass tube homogenizer (Potter–Elvehjem PTFE pestle and glass tube, Sigma-Aldrich, St. Louis, MO, USA) were used to homogenize mouse brains in distilled water at a ratio of 50 μL/mg. Following a 10 min centrifugation at 8000g for 10 min at 4 °C, homogenates were diluted 10 times with 0.1% formic acid in MeCN from the supernatant. Samples (10 μL) were deproteinized with 80 μL of 0.1% formic acid in MeCN by shaking for 10 min (IKA Vibrax VXR, IKA Werke GmbH & Co. KG, Staufen im Breisgau, Germany) and centrifuged for 5 min at the speed of 8000g (Eppendorf miniSpin centrifuge) after isotope-labeled GABA-d6 and glutamate-d5 (Toronto Research Chemicals Inc., Toronto, ON, Canada) were added as internal standards (10 μL at the concentration of 500 ng/mL). The autosampler vials were filled with the acquired supernatants. […]

For test [2], the system named is mature-BDNF (mBDNF) expression. Description: mBDNF expression in hippocampus and cortex of PTZ-kindled mice (Western blot). Format: in vivo, mouse. To be noted: 80 mg/kg repeated, p < 0.01 vs PTZ kindling control. The text has this:
However, there are also few reports showing opposite findings.[51],[52] […] No changes in the expression of the nerve growth factor (NGF) were observed (Figure 6D–F).
Figure 6 Changes in mature-BDNF (mBDNF) expression in hippocampus (A) and cortex (C) and in proNGF expression in hippocampus (D) and cortex (F) with representative immunoblots, together with total protein amount visualized by the stain-free technique (B,E). Data are shown as means of relative expressions + SD (n = 8). Statistical significance was evaluated by one-way ANOVA followed by Tukey’s post hoc test: **p < 0.01 (GraphPad Prism 8.4.3).
The Western Blot method was used to assess the expression of proNGF and mBDNF in the mouse brain and hippocampal tissues. Using a bead homogenizer (Bead Ruptor Elite, Omni International, USA), the cortical and hippocampal regions of the mouse brain were weighted and homogenized at a ratio of 9 μL/mg in 2% SDS supplemented with a cocktail of protease (Thermo Scientific, Walthman, MA, USA) and phosphatase inhibitors (Sigma-Aldrich, St. Louis, MO, USA). Samples were then centrifuged at 10,000g for 10 min at 4 °C after being denatured for 10 min at 95 °C. […] One-way ANOVA with Tukey’s post hoc test was utilized to examine changes in the relative expression of the proteins that were evaluated.

For the compound `CC(=O)N[C@@H](C(=O)N1CCN(c2cccc(OC(F)(F)F)c2)CC1)c1ccccc1` [(R)-32, (R)-N-(2-Oxo-1-phenyl-2-(4-(3-(trifluoromethoxy)phenyl)piperazin-1-yl)ethyl)acetamide], in test [1] (80 mg/kg, p < 0.001 vs PTZ-kindled control group), the “GABA concentration in the cortex” value is given as “significantly decreased”. In test [1] (80 mg/kg, p < 0.01 vs PTZ-kindled control group), the “glutamate concentration in the cortex (PTZ-kindling-induced decrease)” value was “reversed this effect”. The “glutamate concentration in the hippocampus” value in test [1] (vs nonkindled FST control group) is recorded as “slight decrease”. Moreover, the “mBDNF protein expression in the hippocampus (PTZ kindling-induced overexpression)” value in test [2] is recorded as “reversed the overexpression”.
